Experimental data from US20230285405A1, “Pharmaceuticals for Treating or Preventing Nidoviruses and Picornaviruses” (priority 2020, published 2023).
Where a name gives a salt, the structure may show the parent alone. Read-outs that look alike come from different tables or passages of the source.

Legend:
A549-mRuby cells = test: Drug screening: effect on cell growth (cell number day 4 / day 0); settings: 10 μM drug; for Growth_1: number of cells at day 4 divided by number of cells at day 0 / toxic_1: repeat #1; for Growth_2: number of cells at day 4 divided by number of cells at day 0 / toxic_2: repeat #2
Outline: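 A549 cells carrying an H2B-mRuby reporter were infected with OC43 at MOI 0.3 for 1 h at 33° C, then given drug at 10 μM final. Cell numbers were counted by imaging at day 0 and again at day 4 after 4 days at 33° C, 5% CO2, with the screen run twice.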

OC43 = test: Drug screening: OC43 nucleoprotein staining in infected A549-mRuby cells; assay type: cell-based, human beta coronavirus OC43; settings: for activity at 10 µM: Betacoronavirus 1, OC43, 96 h
Outline: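 A549 cells expressing H2B-mRuby infected with OC43 at MOI 0.3 for 1 h at 33° C, then drugs added at 10 μM final and incubated 4 days at 33° C. Viral nucleoprotein immunostained and imaged; intensity normalized to cell number and no-drug controls (=100). Hits reduced staining >3 SD in both repeats without toxicity.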

[1] = 10 μM drug, MOI 0.3, 4 days, OC43 staining normalized to no-drug controls, mean of the two screen repeats, read-out: OC43_mean
[2] = 10 μM drug, MOI 0.3, 4 days, normalized to no-drug controls in the same plate, repeat #1, read-out: OC43_1: % staining of OC43 in screen repeat #1
[3] = 10 μM drug, MOI 0.3, 4 days, normalized to no-drug controls in the same plate, repeat #2, read-out: OC43_2: % staining of OC43 in screen repeat #2
[4] = 10 μM drug, MOI 0.3, 4 days, OC43 staining normalized to no-drug controls, mean of the two screen repeats
[5] = 10 μM drug, MOI 0.3, 4 days, normalized to no-drug controls in the same plate, repeat #1
[6] = 10 μM drug, MOI 0.3, 4 days, normalized to no-drug controls in the same plate, repeat #2

| Compound | Growth_1: number of cells at day 4 divided by number of cells at day 0 (A549-mRuby cells) | toxic_1 (A549-mRuby cells) | Growth_2: number of cells at day 4 divided by number of cells at day 0 (A549-mRuby cells) | toxic_2 (A549-mRuby cells) | hit_1 (OC43; 10 μM drug, repeat #1) | hit_2 (OC43; 10 μM drug, repeat #2) | activity at 10 µM (OC43; [1]) | activity at 10 µM (OC43; [2]) | activity at 10 µM (OC43; [3]) | activity at 10 µM (OC43; read-out: OC43_mean) | activity at 10 µM (OC43; read-out: OC43_mean, 10 μM drug, MOI 0.3, 4 days, OC43 staining normalized to no-drug controls, mean of the two screen repeats) | hit_1 (OC43) | hit_2 (OC43) | activity at 10 µM (OC43; read-out: OC43_1: % staining of OC43 in screen repeat #1) | activity at 10 µM (OC43; read-out: OC43_2: % staining of OC43 in screen repeat #2) | OC43_mean (OC43; [4]) | OC43_1: % staining of OC43 in screen repeat #1 (OC43; [5]) | OC43_2: % staining of OC43 in screen repeat #2 (OC43; [6]) |
| --- | --- | --- | --- | --- | --- | --- | --- | --- | --- | --- | --- | --- | --- | --- | --- | --- | --- | --- |
| Cc1ccccc1C(OCCN(C)C)c1ccccc1 (stereo not drawn) [Orphenadrine Hydrochloride] | 4.6 | 0 | 5.1 | 0 | 1 | 1 | 37.6% | 11.7% | 63.6% |  |  |  |  |  |  |  |  |  |
| OCCN1CCN(CCCN2c3ccccc3Sc3ccc(Cl)cc32)CC1 [Perphenazine] | 2.2 | 0 | 2.5 | 0 | 1 | 1 | 42.8% | 59.8% | 25.8% |  |  |  |  |  |  |  |  |  |
| CN1CCN(CCCN2c3ccccc3Sc3ccc(Cl)cc32)CC1 [Prochlorperazine Dimaleate] | 3.1 | 0 | 3.0 | 0 | 1 | 1 | 22.6% | 20.2% | 25% |  |  |  |  |  |  |  |  |  |
| CN(C)CCCN1c2ccccc2Sc2ccccc21 [Promazine hydrochloride] | 4.7 | 0 | 4.7 | 0 | 1 | 1 | 23% | 23.4% | 22.6% |  |  |  |  |  |  |  |  |  |
| CC(CN1c2ccccc2Sc2ccccc21)N(C)C (stereo not drawn) [Promethazine HCl] | 3.0 | 0 | 2.4 | 0 | 1 | 1 | 24.4% | 19.4% | 29.5% |  |  |  |  |  |  |  |  |  |
| CCCOC(C(=O)OC1CCN(C)CC1)(c1ccccc1)c1ccccc1 [Propiverine hydrochloride] | 3.0 | 0 | 2.2 | 0 | 1 | 1 | 27.3% | 29.5% | 25.2% |  |  |  |  |  |  |  |  |  |
| CC(C)NCC(O)COc1cccc2ccccc12 (stereo not drawn) [Propranolol HCl] | 5.6 | 0 | 4.1 | 0 | 1 | 1 |  | 21.6% | 27.7% | 24.7% |  |  |  |  |  |  |  |  |
| CCCc1cc(=O)[nH]c(=S)[nH]1 [Propylthiouracil] | 3.7 | 0 | 4.2 | 0 | 1 | 1 |  | 44.3% | 55.1% |  | 49.7% |  |  |  |  |  |  |  |
| OCCOCCN1CCN(C2=Nc3ccccc3Sc3ccccc32)CC1 [Quetiapine Fumarate] | 3.6 | 0 | 3.7 | 0 |  |  |  |  |  | 48% |  | 1 | 1 | 34.5% | 61.5% |  |  |  |
| CO[C@H]1/C=C/O[C@@]2(C)Oc3c(C)c(O)c4c(c3C2=O)C2=NC3(CCN(CC(C)C)CC3)NC2=C(NC(=O)/C(C)=C\C=C\[C@H](C)[C@H](O)[C@@H](C)[C@@H](O)[C@@H](C)[C@H](OC(C)=O)[C@@H]1C)C4=O [Rifabutin] | 5.5 | 0 | 5.3 | 0 | 1 | 1 | 41.1% | 25.8% | 56.4% |  |  |  |  |  |  |  |  |  |
| CC(N)C12CC3CC(CC(C3)C1)C2 (stereo not drawn) [Rimantadine Hydrochloride] | 4.4 | 0 | 5.1 | 0 | 1 | 1 | 52.6% | 50.6% | 54.6% |  |  |  |  |  |  |  |  |  |
| CC[C@H]1OC(=O)[C@H](C)[C@@H](O[C@H]2C[C@@](C)(OC)[C@@H](O)[C@H](C)O2)[C@H](C)[C@@H](O[C@@H]2O[C@H](C)C[C@H](N(C)C)[C@H]2O)[C@](C)(O)C[C@@H](C)/C(=N\OCOCCOC)[C@H](C)[C@@H](O)[C@]1(C)O [Roxithromycin] | 5.2 | 0 | 5.6 | 0 | 1 | 1 | 41.4% | 55.8% | 27.1% |  |  |  |  |  |  |  |  |  |
| OCc1cc(C(O)CNCCCCCCOCCCCc2ccccc2)ccc1O (stereo not drawn) [Salmeterol Xinafoate] | 2.9 | 0 | 2.5 | 0 | 1 | 1 |  | 39.3% | 20.4% | 29.9% |  |  |  |  |  |  |  |  |
| CN1CCN(CCOc2cc(OC3CCOCC3)c3c(Nc4c(Cl)ccc5c4OCO5)ncnc3c2)CC1 [Saracatinib (AZD0530), Saracatinib] | 3.1 | 0 | 4.0 | 0 | 1 | 1 | 22.7% | 21.2% | 24.1% |  |  |  |  |  |  |  |  |  |
| COc1cccc(CCc2ccccc2OCC(CN(C)C)OC(=O)CCC(=O)O)c1 (stereo not drawn) [Sarpogrelate hydrochloride] | 5.0 | 0 | 5.4 | 0 | 1 | 1 | 25.9% | 26.8% | 24.9% |  |  |  |  |  |  |  |  |  |
| O=C(O[C@H]1CN2CCC1CC2)N1CCc2ccccc2[C@@H]1c1ccccc1 [Solifenacin] | 4.3 | 0 | 3.4 | 0 | 1 | 1 | 25% | 20.4% | 29.6% |  |  |  |  |  |  |  |  |  |
| CN1CCC(COc2cnc(-c3cccc(Cn4nc(-c5cccc(C#N)c5)ccc4=O)c3)nc2)CC1 [Tepotinib (EMD 1214063), Tepotinib] | 5.3 | 0 | 5.2 | 0 | 1 | 1 | 28.9% | 15.3% | 42.6% |  |  |  |  |  |  |  |  |  |
| C[C@@H]1CCN(C(=O)CC#N)C[C@@H]1N(C)c1ncnc2[nH]ccc12.O=C(O)CC(O)(CC(=O)O)C(=O)O [Tofacitinib (CP-690550) Citrate] | 4.8 | 0 | 4.7 | 0 | 1 | 1 |  |  |  |  |  |  |  |  |  | 58.5% | 56.5% | 60.4% |
| CN1CCN(CCCN2c3ccccc3Sc3ccc(C(F)(F)F)cc32)CC1.Cl.Cl [Trifluoperazine 2HCl] | 2.3 | 0 | 2.1 | 0 | 1 | 1 |  |  |  |  |  |  |  |  |  | 31.6% | 33.8% | 29.5% |
| CN1[C@@H]2CC[C@H]1C[C@@H](OC(=O)c1c[nH]c3ccccc13)C2 [Tropisetron HCl] | 5.8 | 0 | 5.5 | 0 | 1 | 1 | 58% | 52.6% | 63.4% |  |  |  |  |  |  |  |  |  |
